# Biological target: T1, human recombinant mGluR5 (Homo sapiens, UniProt P41594)
# T1 construct: expressed in transfected cells; host or cells: HEK 293 cell line cultured with tetracycline, hygromycin and geneticin; tetracycline removed 3-7 days before the assay
# Experiment: positive modulation of mGluR5, calcium based FLIPR assay in HEK 293 cells
# Settings: HEK 293 cell line expressing human recombinant mGluR5; EC50 of the modulation of the glutamate response (glutamate approx. 5% basal stimulation); peak height of Ca release fluorescence signal
# How it was run: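 HEK 293 cells expressing human mGluR5 (tetracycline-free medium 3-7 days before), loaded with Calcium-4 dye, in Ringer buffer pH 7.4, 1% DMSO. Compound pre-incubated 5 min, then glutamate at about 5% of maximal effect added; EC50 from peak Ca2+ fluorescence by nonlinear regression, scaled between DMSO (100%) and 10 μM CDPPB (200%) controls.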
# T1 sequence (P41594 21-1212): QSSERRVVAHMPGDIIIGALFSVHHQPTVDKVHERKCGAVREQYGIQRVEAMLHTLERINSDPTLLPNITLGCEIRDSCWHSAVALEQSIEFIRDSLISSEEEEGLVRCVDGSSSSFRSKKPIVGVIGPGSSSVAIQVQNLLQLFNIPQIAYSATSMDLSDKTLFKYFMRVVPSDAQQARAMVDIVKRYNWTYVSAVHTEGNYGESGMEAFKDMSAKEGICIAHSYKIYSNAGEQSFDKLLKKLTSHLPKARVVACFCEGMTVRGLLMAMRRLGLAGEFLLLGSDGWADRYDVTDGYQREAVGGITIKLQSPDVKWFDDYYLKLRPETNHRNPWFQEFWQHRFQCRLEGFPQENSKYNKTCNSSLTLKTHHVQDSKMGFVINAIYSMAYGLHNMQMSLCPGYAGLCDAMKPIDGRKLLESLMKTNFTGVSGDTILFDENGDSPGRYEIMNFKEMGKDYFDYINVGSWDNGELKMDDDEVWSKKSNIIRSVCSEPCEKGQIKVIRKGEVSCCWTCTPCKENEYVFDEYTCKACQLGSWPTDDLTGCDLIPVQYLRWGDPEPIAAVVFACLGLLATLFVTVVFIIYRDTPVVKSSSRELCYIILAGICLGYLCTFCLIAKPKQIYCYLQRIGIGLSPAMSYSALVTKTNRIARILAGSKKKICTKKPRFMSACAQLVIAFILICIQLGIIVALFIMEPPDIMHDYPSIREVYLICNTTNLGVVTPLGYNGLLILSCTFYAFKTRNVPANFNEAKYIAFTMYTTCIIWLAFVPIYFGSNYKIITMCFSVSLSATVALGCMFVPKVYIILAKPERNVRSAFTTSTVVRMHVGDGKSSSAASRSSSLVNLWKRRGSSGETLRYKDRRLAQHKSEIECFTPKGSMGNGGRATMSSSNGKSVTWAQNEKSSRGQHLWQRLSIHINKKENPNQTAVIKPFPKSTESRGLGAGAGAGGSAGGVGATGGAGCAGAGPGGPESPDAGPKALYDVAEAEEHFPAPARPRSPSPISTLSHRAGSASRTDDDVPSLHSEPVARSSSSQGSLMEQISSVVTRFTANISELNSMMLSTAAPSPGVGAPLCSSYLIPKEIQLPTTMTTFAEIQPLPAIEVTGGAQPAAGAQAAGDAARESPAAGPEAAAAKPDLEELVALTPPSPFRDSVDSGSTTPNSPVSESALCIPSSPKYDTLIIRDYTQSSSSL
row,EC50,Structure (SMILES)
1,382 nM,Cc1ccnc(N2CCN(C(=O)Cn3nc(-c4ccc(F)c(C)c4)nc3CC(C)C)CC2)c1 [Example 07.04.105.]
2,387 nM,Cc1cc(-c2nc(CC(C)C)n(CC(=O)N3CCN(c4ccccn4)CC3)n2)ccc1F [Example 07.04.106.]
3,500 nM,COc1ccnc(N2CCN(C(=O)Cn3nc(-c4ccc(F)c(C)c4)nc3CC(C)C)CC2)c1 [Example 07.04.107.]
4,317 nM,Cc1cc(-c2nc(CC(C)C)n(CC(=O)N3CCN(c4ncccn4)CC3)n2)ccc1F [Example 07.04.108.]
5,824 nM,COc1cc(N2CCN(C(=O)Cn3nc(-c4ccc(F)c(C)c4)nc3CC(C)C)CC2)ncn1 [Example 07.04.109.]
6,409 nM,COc1ccnc(N2CCN(C(=O)Cn3nc(-c4ccc(F)c(C)c4)nc3C3CCCC3)CC2)c1 [Example 07.04.110.]
7,131 nM,Cc1cc(-c2nc(C3CCCC3)n(CC(=O)N3CCN(c4ncccn4)CC3)n2)ccc1F [Example 07.04.111.]
8,311 nM,COc1cc(N2CCN(C(=O)Cn3nc(-c4ccc(F)c(C)c4)nc3C3CCCC3)CC2)ncn1 [Example 07.04.112.]
9,263 nM,Cc1cc(-c2nc(C3CCCC3)n(CC(=O)N3CCN(c4ccccn4)CC3)n2)ccc1F [Example 07.04.113.]
10,495 nM,Cc1ccnc(N2CCN(C(=O)Cn3nc(-c4ccc(F)c(C)c4)nc3C3CCCC3)CC2)c1 [Example 07.04.114.]
11,208 nM,CCCCc1nc(-c2ccc(F)c(C)c2)nn1CC(=O)N1CCN(c2cc(C)ccn2)CC1 [Example 07.04.115.]
12,697 nM,CCCCc1nc(-c2ccc(F)c(C)c2)nn1CC(=O)N1CCN(c2ccccn2)CC1 [Example 07.04.116.]
13,390 nM,CCCCc1nc(-c2ccc(F)c(C)c2)nn1CC(=O)N1CCN(c2ncccn2)CC1 [Example 07.04.117.]
14,255 nM,CCCCc1nc(-c2ccc(F)c(C)c2)nn1CC(=O)N1CCN(c2cc(OC)ccn2)CC1 [Example 07.04.118.]
15,298 nM,CCCCc1nc(-c2ccc(F)c(C)c2)nn1CC(=O)N1CCN(c2cc(OC)ncn2)CC1 [Example 07.04.119.]
16,153 nM,COc1ccnc(N2CCN(C(=O)Cn3nc(-c4ccc(F)c(C)c4)nc3CCC(C)C)CC2)c1 [Example 07.04.120.]
17,209 nM,Cc1ccnc(N2CCN(C(=O)Cn3nc(-c4ccc(F)c(C)c4)nc3CCC(C)C)CC2)c1 [Example 07.04.121.]
18,140 nM,Cc1cc(-c2nc(CCC(C)C)n(CC(=O)N3CCN(c4ncccn4)CC3)n2)ccc1F [Example 07.04.122.]
19,92 nM,CCCCCc1nc(-c2ccc(F)c(C)c2)nn1CC(=O)N1CCN(c2cc(OC)ccn2)CC1 [Example 07.04.123.]
20,125 nM,CCCCCc1nc(-c2ccc(F)c(C)c2)nn1CC(=O)N1CCN(c2ccccn2)CC1 [Example 07.04.124.]
21,109 nM,CCCCCc1nc(-c2ccc(F)c(C)c2)nn1CC(=O)N1CCN(c2cc(C)ccn2)CC1 [Example 07.04.125.]
22,110 nM,CCCCCc1nc(-c2ccc(F)c(C)c2)nn1CC(=O)N1CCN(c2cc(OC)ncn2)CC1 [Example 07.04.126.]
23,64 nM,CCCCCc1nc(-c2ccc(F)c(C)c2)nn1CC(=O)N1CCN(c2ncccn2)CC1 [Example 07.04.127.]

row,EC50,Structure (SMILES)
1,485 nM,Cc1cc(-c2nc(C3CCC(C)CC3)n(CC(=O)N3CCN(c4ncccn4)CC3)n2)ccc1F (stereo not shown) [Example 07.04.128.]
2,1320 nM,Cc1cc(-c2nc(C3CCC(C)CC3)n(CC(=O)N3CCN(c4ccccn4)CC3)n2)ccc1F (stereo not shown) [Example 07.04.129.]
3,848 nM,Cc1ccnc(N2CCN(C(=O)Cn3nc(-c4ccc(F)c(C)c4)nc3C3CCC(C)CC3)CC2)c1 (stereo not shown) [Example 07.04.130.]
4,1000 nM,COc1ccnc(N2CCN(C(=O)Cn3nc(-c4ccc(F)c(C)c4)nc3C3CCC(C)CC3)CC2)c1 (stereo not shown) [Example 07.04.131.]
5,960 nM,COc1cc(N2CCN(C(=O)Cn3nc(-c4ccc(F)c(C)c4)nc3C3CCC(C)CC3)CC2)ncn1 (stereo not shown) [Example 07.04.132.]
6,1080 nM,Cc1cc(-c2nc(C3CCCCC3C)n(CC(=O)N3CCN(c4ccccn4)CC3)n2)ccc1F (stereo not shown) [Example 07.04.133.]
7,1030 nM,Cc1ccnc(N2CCN(C(=O)Cn3nc(-c4ccc(F)c(C)c4)nc3C3CCCCC3C)CC2)c1 (stereo not shown) [Example 07.04.134.]
8,392 nM,Cc1cc(-c2nc(C3CCCCC3C)n(CC(=O)N3CCN(c4ncccn4)CC3)n2)ccc1F (stereo not shown) [Example 07.04.135.]
9,1220 nM,COc1ccnc(N2CCN(C(=O)Cn3nc(-c4ccc(F)c(C)c4)nc3C3CCCCC3C)CC2)c1 (stereo not shown) [Example 07.04.136.]
10,1050 nM,COc1cc(N2CCN(C(=O)Cn3nc(-c4ccc(F)c(C)c4)nc3C3CCCCC3C)CC2)ncn1 (stereo not shown) [Example 07.04.137.]
11,1010 nM,Cc1ccnc(N2CCN(C(=O)Cn3nc(-c4ccc(F)cn4)nc3-c3ccc(F)cc3)CC2)c1 [Example 07.04.138.]
12,809 nM,O=C(Cn1nc(-c2ccc(F)cn2)nc1-c1ccc(F)cc1)N1CCN(c2ccccn2)CC1 [Example 07.04.139.]
13,320 nM,O=C(Cn1nc(-c2ccc(F)cn2)nc1-c1ccc(F)cc1)N1CCN(c2ncccn2)CC1 [Example 07.04.140.]
14,932 nM,COc1cc(N2CCN(C(=O)Cn3nc(-c4ccc(F)cn4)nc3-c3ccc(F)cc3)CC2)ncn1 [Example 07.04.141.]
15,434 nM,COc1ccnc(N2CCN(C(=O)Cn3nc(-c4ccc(F)cn4)nc3-c3ccc(F)cc3)CC2)c1 [Example 07.04.142.]
16,783 nM,Cc1ccnc(N2CCN(C(=O)Cn3nc(-c4ccc(F)cc4)nc3-c3ccc(F)cn3)CC2)c1 [Example 07.04.143.]
17,1270 nM,Cc1cc(-c2nc(C3CCC(F)(F)CC3)n(CC(=O)N3CCN(c4ncccn4)CC3)n2)ccc1F [Example 07.04.144.]
18,373 nM,Cc1cc(-c2nc(C3CCCC(C)C3)n(CC(=O)N3CCN(c4ncccn4)CC3)n2)ccc1F (stereo not shown) [Example 07.04.145.]
19,1340 nM,Cc1ccnc(N2CCN(C(=O)Cn3nc(-c4ccc(F)c(C)c4)nc3C3CCCC(C)C3)CC2)c1 (stereo not shown) [Example 07.04.146.]
20,713 nM,COc1cc(N2CCN(C(=O)Cn3nc(-c4ccc(F)c(C)c4)nc3C3CCCC(C)C3)CC2)ncn1 (stereo not shown) [Example 07.04.147.]
21,918 nM,COc1ccnc(N2CCN(C(=O)Cn3nc(-c4ccc(F)c(C)c4)nc3C3CCCC(C)C3)CC2)c1 (stereo not shown) [Example 07.04.148.]
22,869 nM,Cc1cc(-c2nc(C3CCCC(C)C3)n(CC(=O)N3CCN(c4ccccn4)CC3)n2)ccc1F (stereo not shown) [Example 07.04.149.]
23,323 nM,O=C(Cn1nc(-c2ccc(F)cc2)nc1CCc1ccccc1)N1CCN(c2ncccn2)CC1 [Example 07.04.150.]

row,EC50,Structure (SMILES)
1,560 nM,Cc1ccnc(N2CCN(C(=O)Cn3nc(-c4ccc(F)cc4)nc3CCc3ccccc3)CC2)c1 [Example 07.04.151.]
2,174 nM,COc1ccc(-c2nc(-c3ccccc3)n(CC(=O)N3CCN(c4cc(OC)ncn4)CC3)n2)cc1 [Example 07.04.152.]
3,22 nM,Cc1cc(-c2nc(-c3ccc(F)c(C)c3)n(CC(=O)N3CCN(c4ncccn4)CC3)n2)ccc1F [Example 07.04.153.]
4,54 nM,Cc1cc(-c2nc(-c3ccc(F)c(C)c3)n(CC(=O)N3CCN(c4ccccn4)CC3)n2)ccc1F [Example 07.04.154.]
5,59 nM,COc1cc(N2CCN(C(=O)Cn3nc(-c4ccc(F)c(C)c4)nc3-c3ccc(F)c(C)c3)CC2)ncn1 [Example 07.04.155.]
6,18 nM,COc1cc(-c2nc(-c3ccc(F)cc3)n(CC(=O)N3CCN(c4ncccn4)CC3)n2)ccc1F [Example 07.04.156.]
7,36 nM,COc1cc(-c2nc(-c3ccc(F)cc3)n(CC(=O)N3CCN(c4ccccn4)CC3)n2)ccc1F [Example 07.04.157.]
8,27 nM,COc1cc(N2CCN(C(=O)Cn3nc(-c4ccc(F)c(OC)c4)nc3-c3ccc(F)cc3)CC2)ncn1 [Example 07.04.158.]
9,282 nM,COc1ccc(-c2nc(-c3ccccc3)n(CC(=O)N3CCN(c4cccc(OC)n4)CC3)n2)cc1 [Example 07.04.159.]
10,80 nM,COc1ccc(-c2nc(-c3ccccc3)n(CC(=O)N3CCN(c4cc(C)ccn4)CC3)n2)cc1 [Example 07.04.160.]
11,1520 nM,COc1cccc(-c2nc(C(C)C)n(CC(=O)N3CCN(c4ncccn4)CC3)n2)c1 [Example 07.04.161.]
12,19 nM,COc1cc(N2CCN(C(=O)Cn3nc(-c4ccc(OC(F)F)cc4)nc3-c3ccccc3)CC2)ncn1 [Example 7.04.162]
13,850 nM,CCc1nc(-c2ccc(OC(F)F)cc2)nn1CC(=O)N1CCN(c2ncccn2)CC1 [Example 7.04.163]
14,22 nM,O=C(Cn1nc(-c2ccc(OC(F)F)cc2)nc1-c1ccccc1)N1CCN(c2ccccn2)CC1 [Example 7.04.164]
15,13 nM,O=C(Cn1nc(-c2ccc(OC(F)F)cc2)nc1-c1ccccc1)N1CCN(c2ncccn2)CC1 [Example 7.04.165]
16,431 nM,O=C(Cn1nc(-c2ccccc2)nc1-c1ccc(OC(F)F)cc1)N1CCN(c2ccccn2)CC1 [Example 7.04.166]
17,527 nM,CCCc1nc(-c2ccc(OC(F)F)cc2)nn1CC(=O)N1CCN(c2ccccn2)CC1 [Example 7.04.167]
18,249 nM,CCCc1nc(-c2ccc(OC(F)F)cc2)nn1CC(=O)N1CCN(c2ncccn2)CC1 [Example 7.04.168]
19,928 nM,CCCc1nc(-c2ccc(OC(F)F)cc2)nn1CC(=O)N1CCN(c2cc(OC)ncn2)CC1 [Example 7.04.169]
20,50 nM,"CCOc1ccnc(N2CCN(C(=O)Cn3nc(-c4ccc(F)cc4)nc3-c3ccc(F)cc3)CC2)c1 [Example 07.05.01., 2-(3,5-Bis-(4-fluoro-phenyl)-(1,2,4)triazol-1-yl)-1-(4-(4-ethoxy-pyridin-2-yl)-piperazin-1-yl)-ethanone]"
21,43 nM,CCc1ccnc(N2CCN(C(=O)Cn3nc(-c4ccc(F)cc4)nc3-c3ccc(F)cc3)CC2)c1 [Example 07.05.02.]

# — US8889677B2, “Substituted triazoles useful as mGlu5 receptor modulators” (Boehringer Ingellheim International GmbH, priority 2012, dated 2014)
